12 molecules from US20220185793A1, “COMPOUNDS FOR THE TREATMENT OF ONCOVIRUS INDUCED CANCER AND METHODS OF USE THEREOF” (Cellestia Biotech AG, priority 2019, published 2022) can be followed below.

Test [1] concerns EBV positive human lymphoma HG-3 cells. Briefly: Alamar blue proliferation assay in HG-3 cells. The class given is cell-based. The note with it: 72 hours; for IC50: Homo sapiens, concentration range 0.01-10 μM, Alamar blue assay, read-out: Anti-proliferative IC50 values; for anti-proliferative effect on HG-3 cells (in words): Alamar blue, FIG. 1 and Table 1. The method, then: (§1) One million human EBV positive lymphoma cell lines HG3 and LCL070903 (Rosén et al., 2012) were cultured in RPMI1640 media supplemented with 10% FCS. […] Following treatment cells were harvested and washed with 1× PBS. Total RNA was extracted as described below.
(§2) Alamarblue® and PrestoBlue proliferation assays were performed to determine the growth kinetics of EBV inhibitor treated cells. Alamar blue® and PrestoBlue consists of a cell permeable substrate resazurin. In metabolically active and proliferating cells, resazurin is converted to resorufin due to an intrinsic reducing power of live cells and produces a red fluorescence. Therefore production of resorufin serves as an indicator of the viability of the cell population.
(§3) Proliferation assays were performed by seeding 5000 cells/well in a 96 well plate. […] Each concentration was tested in 4 replicates. To determine the growth kinetics, 10 μl of Alamar blue® or PrestoBlue (Invitrogen) was added to each well and incubated for 4 hours. Readout was taken using Tecan F500 (Tecan) multiplate reader or Varioskan LUX (ThermoFisher) multiplate reader.
In order to determine anti-cancer activity of compounds in oncoviral driven cells, an EBV infected human Chronic Lymphocytic Leukemia cell line HG-3 was used (Rosen et al., 2012). In brief, HG-3 cells were plated in a 96 well plate and treated with an increasing concentration of compounds.

In test [2] the test system is EBV positive human B HG-3 cells. Briefly: PrestoBlue proliferation assay in HG-3 cells. Format: cell-based. The settings on record: 72 hours; for IC50: Homo sapiens, concentration range 0.03-100 μM, PrestoBlue assay, read-out: Anti-proliferative IC50 values (μM) in HG-3 cells; for anti-proliferative effect on HG-3 cells (in words): PrestoBlue, FIG. 2 and Table 4. The method, then:
as §1, §2, §3
In brief, HG-3 cells were plated in a 96 well plate and treated with an increasing concentration of compounds.

The test system of test [3] is BMI1 (EBV target gene). Briefly: EBV target gene downregulation (qPCR) in HG-3 cells: BMI1. Format: cell-based, human. The settings on record: 48 hours; for inhibition at 10 µM: Homo sapiens, mRNA by qPCR, Table 5; for potency in downregulating EBV pathway (BMI1) compared with 6-(4-tert-butylphenoxy)pyridin-3-amine (in words): 10 μM, qRT-PCR, FIG. 4. As to the method:
EBV positive human B HG-3 cells were treated with 10 μM of the mentioned compounds for 48 hours. Following treatment, total RNA was extracted and mRNA expression analysed by qRT-PCR.
(§4) One million human EBV positive lymphoma cell lines HG3 and LCL070903 (Rosén et al., 2012) were cultured in RPMI1640 media supplemented with 10% FCS. For RNA expression analysis cells were treated with compounds at 10 μM concentration and for proliferation assay cells were treated at a concentration range of 0.01-100 μM. Following treatment cells were harvested and washed with 1× PBS. Total RNA was extracted as described below.
(§5) Total RNA was extracted from cells using TRIzol® extraction kit (Invitrogen). Briefly, 1×10^6 cells were washed with ice-cold 1× PBS and lysed in 1 ml of TRIzol® solution for 5 minutes at room temperature to dissociate nucleoprotein complexes. Lysed cells were then treated with 200 μl of chloroform and shaked vigorously for 15-30 seconds and incubated at room temperature for 2-3 minutes. The samples were centrifuged at 14000 rpm using Eppendorf table top centrifuge for 10 minutes at 4° C. Following centrifugation, upper aqueous phase was transferred to new eppendorf tubes. To precipitate total RNA 500 μl of […] was added to the separated aqueous phase and incubated at room temperature for 10 minutes. A RNA pellet was obtained by centrifuging the samples at 4° C. for 10 minutes. RNA pellet obtained was washed with 1 ml ice cold 75% ethanol and spun down at 14000 rpm at 4° C. RNA pellet was dried off of excess of ethanol and resuspended in 40 IA DPEC water.
(§6) Total RNA extracted from the cell was used to synthesize cDNA by reverse transcription reaction. Reverse transcription was performed according to one of the two following protocols.
(§7) In first protocol, SuperScript™ RT (Invitrogen) was used for reverse transcription reaction. RNA concentration was measured using NanoDrop®ND-1000 spectrophotometer (Witec AG) and 500 ng of total RNA was mixed with a 10 mM mix of dNTPs and 100 ng of random primers. The reaction mix was incubated at 65° C. for 5 minutes and quickly incubated on ice for 1 minute. Following incubation on ice, 5× first strand buffer and 0.1M DTT were added and mix was incubated for 2 minutes at 25° C. To start the reverse transcription reaction, 200U of SuperScrip™ II RT was added to the reaction mix and incubated at 42° C. for 50 minutes. The reaction was stopped by incubating the reaction mix at 75° C. for 15 minutes.
(§8) In second protocol, reverse transcription was performed using PrimeScript RT Master Mix (Takara). RNA concentration was measured using NanoDrop®ND-1000 spectrophotometer (Witec AG) and 1 μg of total RNA was mixed with 4 μL 5X PrimeScript RT Master Mix in a total reaction volume of 20 μL. The reaction mix was incubated at 37° C. for 15 minutes followed by heat inactivation at 85° C. for 5 seconds.
(§9) QRT-PCR was carried out using 7900 HT Fast Real-Time PCR system (Applied Biosystems) or QuantStudio 3 system (ThermoFisher). Briefly, 12.5 ng of template cDNA was used with a primer concentration of 0.5 μM each and lx SYBR Green dye in a final volume of 10 μL in a 96 well or 384 well plate format.
(§10) Upon infection of human cells, EBV is known to induce cancerous transformation of cells via upregulation of host as well as viral genes (e.g LMP1, EBNA2, BATF1, BMI1 and CD21). To determine the ability of compounds to downregulate EBV driven gene expression, HG-3 and LCL070903 cells were treated with selected compounds and percentage inhibition of EBV target genes was determined by quantitative PCR. As shown in Table 5 and Table 6, compounds down regulate EBV target genes such as BMI1 in HG-3 and LCL070903 cells, respectively (FIGS. 3 and 4).
On the technique in general: Quantitative PCR measures a nucleic acid by following its amplification.

In test [4] the test system is NOTCH target gene HES1. Briefly: NOTCH target gene HES1 downregulation in RPMI 8402 cells. Format: cell-based, human. The settings on record: RPMI 8402 cells (NOTCH1 positive, EBV negative). The arrangement: Percentage inhibition of NOTCH target gene HES1: concentration or dose not given beside the values. As to the method: as §5, §6, §9
(§11) To determine the ability of compounds to downregulate EBV driven gene expression, HG-3 cells were treated with selected compounds and percentage inhibition of EBV target genes was determined by quantitative PCR. […] To further determine the anti-oncoviral specificity of compounds, these compounds were tested for their ability to downregulate a NOTCH target gene HES1 in a NOTCH1 positive (EBV negative) human leukemic cell line RPMI8402.

Test [5] has as its system BMI1 (EBV target gene). Briefly: EBV target gene downregulation (qPCR) in LCL070903 cells: BMI1. The class given is cell-based, human. The note with it: 48 hours; for inhibition at 10 µM: Homo sapiens, mRNA by qPCR, Table 6; for potency in downregulating EBV pathway (BMI1) compared with 6-(4-tert-butylphenoxy)pyridin-3-amine (in words): 10 μM, qRT-PCR, FIG. 3. The method, then:
EBV positive human B LCL070903 cells were treated with 10 μM of the mentioned compounds for 48 hours. Following treatment, total RNA was extracted and mRNA expression analysed by qRT-PCR.
as §4, §5, §6, §7, §8, §9, §10

Test [6] concerns EBNA2. Briefly: EBV target gene downregulation (qPCR) in HG-3 cells: EBNA2. The class given is cell-based. The settings on record: Homo sapiens, mRNA by qPCR, Table 5. As to the method:
as §4, §5, §6, §7, §8, §9, §11, §10

In the case of `CC(C)(C)c1ccc(Oc2ccc(N)cn2)cc1` [6-(4-tert-Butylphenoxy)pyridin-3-amine, reference compound], the IC50 in test [1] and in test [2] was greater than 10 µM in each case. For the same molecule, the inhibition at 10 µM in test [3] and in test [5] was less than 0% throughout. The “Percentage inhibition of NOTCH target gene HES1” value in test [4] is listed as 80%. Moreover, the “downregulation of NOTCH target gene HES1 (in words)” value in test [4] was “effectively downregulates HES1”.

On to `CC(C)(C)c1ccc(Oc2ccc(NCC#N)cn2)cc1` [Example 6, 2-((6-(4-(tert-Butyl)phenoxy)pyridin-3-yl)amino)acetonitrile], for which, in test [1], the “anti-proliferative effect on HG-3 cells (in words)” value (“anti-proliferative effect” below) is “demonstrate anti-proliferative effect” and the IC50 (as a rule, the concentration at which inhibition is half-maximal) is 8 µM.

As for `Fc1ccc(-c2ccc(Oc3ccc(NCc4cccnc4)cn3)cc2)cc1` [Example 24, 6-((4′-Fluoro-[1,1′-biphenyl]-4-yl)oxy)-N-(pyridin-3-ylmethyl)pyridin-3-amine], the figures for the inhibition at 10 µM in test [6], in test [3] and in test [5] were 7%, 15% and 61%, respectively. For the same molecule, the “potency in downregulating EBV pathway (BMI1) compared with 6-(4-tert-butylphenoxy)pyridin-3-amine (in words)” value in test [3] and in test [5] was “enhanced potency” in each case.

Turning to `CC(C)(C)c1ccc(Oc2ccc(NCc3nn[nH]n3)cn2)cc1` [Example 7, N-((2H-Tetrazol-5-yl)methyl)-6-(4-(tert-butyl)phenoxy)pyridin-3-amine], in test [1], the “anti-proliferative effect” value is “demonstrate anti-proliferative effect” and the IC50 turned out to be 7.1 µM.

In the case of `Cc1cc(Oc2ccc(-c3ccccc3)cc2)ncc1NCc1cccnc1` [Example 22, 6-([1,1′-Biphenyl]-4-yloxy)-4-methyl-N-(pyridin-3-ylmethyl)pyridin-3-amine], in test [2], the “anti-proliferative effect” value is given as “demonstrate anti-proliferative effect” and the IC50 came to 1.5 µM. In addition, in test [3], the “potency in downregulating EBV pathway (BMI1) compared with 6-(4-tert-butylphenoxy)pyridin-3-amine (in words)” value is “enhanced potency” and the inhibition (in general, how much of the control response was suppressed) at 10 µM was 30%. In test [5], the “potency in downregulating EBV pathway (BMI1) compared with 6-(4-tert-butylphenoxy)pyridin-3-amine (in words)” value is “enhanced potency” and the inhibition at 10 µM came to 18%.

For the molecule `CC(C)(C)c1ccc(Oc2ccc(NCc3nnco3)cn2)cc1` [Example 8, N-((1,3,4-Oxadiazol-2-yl)methyl)-6-(4-(tert-butyl)phenoxy)pyridin-3-amine], in test [1], the “anti-proliferative effect” value is recorded as “demonstrate anti-proliferative effect” and the IC50 turned out to be 7.9 µM.

Turning to `Fc1cc(NCc2cccnc2)ccc1Oc1ccc(-c2ccccn2)cc1` [Example 25, 3-Fluoro-4-(4-(pyridin-2-yl)phenoxy)-N-(pyridin-3-ylmethyl)aniline], in test [2], the “anti-proliferative effect” value was “demonstrate anti-proliferative effect” and the IC50 is 6.7 µM. The same molecule showed an inhibition at 10 µM in test [6] of 1%. For the same molecule, in test [3], the “potency in downregulating EBV pathway (BMI1) compared with 6-(4-tert-butylphenoxy)pyridin-3-amine (in words)” value was “enhanced potency” and the inhibition at 10 µM came to 19%. In test [5], the “potency in downregulating EBV pathway (BMI1) compared with 6-(4-tert-butylphenoxy)pyridin-3-amine (in words)” value is given as “enhanced potency” and at 10 µM the inhibition was 46%.

As to `Fc1ccc(-c2ccc(Cc3ccc(NCc4cccnc4)cc3)cc2)cc1` [Example 32, 4-((4′-Fluoro-[1,1′-biphenyl]-4-yl)methyl)-N-(pyridin-3-ylmethyl)aniline], the “potency in downregulating EBV pathway (BMI1) compared with 6-(4-tert-butylphenoxy)pyridin-3-amine (in words)” value in test [3] and in test [5] was “enhanced potency” throughout. The values for the inhibition at 10 µM in test [3] and in test [5] were 13% and 45%, respectively.

As for `Fc1cc(NCc2cccnc2)ccc1Oc1ccc(-c2cccnc2)cc1` [Example 26, 3-Fluoro-4-(4-(pyridin-3-yl)phenoxy)-N-(pyridin-3-ylmethyl)aniline], in test [3], the “potency in downregulating EBV pathway (BMI1) compared with 6-(4-tert-butylphenoxy)pyridin-3-amine (in words)” value is on record as “enhanced potency” and at 10 µM the inhibition was 11%. In test [5], the “potency in downregulating EBV pathway (BMI1) compared with 6-(4-tert-butylphenoxy)pyridin-3-amine (in words)” value is “enhanced potency” and 10 µM produced 53% inhibition.

Turning to `COC(c1ccc(NCc2cccnc2)cc1)c1ccc(-c2ccc(F)cc2)cc1` (stereo not drawn) [Example 31, 4-((4′-Fluoro-[1,1′-biphenyl]-4-yl)(methoxy)methyl)-N-(pyridin-3-ylmethyl)aniline], the “potency in downregulating EBV pathway (BMI1) compared with 6-(4-tert-butylphenoxy)pyridin-3-amine (in words)” value in test [3] and in test [5] was “enhanced potency” in each case. Moreover, the inhibition at 10 µM turned out to be 24% in test [3] and 48% in test [5].

As to `CC(C)(C)c1ccc(Oc2ccc(NCc3cccnc3)cc2F)cc1` [Example 18, 4-(4-(tert-Butyl)phenoxy)-3-fluoro-N-(pyridin-3-ylmethyl)aniline], in test [3], the “potency in downregulating EBV pathway (BMI1) compared with 6-(4-tert-butylphenoxy)pyridin-3-amine (in words)” value is “enhanced potency” and the inhibition at 10 µM is 10%. In test [5], the “potency in downregulating EBV pathway (BMI1) compared with 6-(4-tert-butylphenoxy)pyridin-3-amine (in words)” value is “enhanced potency” and at 10 µM the inhibition was 24%.

As to `CC(C)(C)c1ccc(Oc2ccc(NCc3nnc(N)o3)cn2)cc1` [Example 9, 5-(((6-(4-(tert-Butyl)phenoxy)pyridin-3-yl)amino)methyl)-1,3,4-oxadiazol-2-amine], in test [1], the “anti-proliferative effect” value was “demonstrate anti-proliferative effect” and the IC50 was 6.3 µM.
